Source: article PMC13492380, “Dissecting Structural and Functional Determinants of Microtubules Stabilization through Guided Chemical Modulation” (Journal of Medicinal Chemistry, 2026)
Like-named read-outs stand apart in the source and are kept apart here.

Columns and labels:
tubulin = assay: Tubulin polymerization time course (absorbance 350 nm); assay type: biochemical, calf; details: 25 μM tubulin in PEDTA buffer, 35 μM compound, 37 °C
Experimental: Purified calf brain tubulin and chemicals were obtained as previously described. Tau-mCherry was expressed and purified as described previously. Human Kif5B-EGFP (amino acids 1-905), containing a C terminal fluorescent-tag followed by a 3C protease cleavage site and a 6 × His-tag was expressed and purified as in with some modifications. Prior to purification, cells were resuspended in 1:1 ratio of lysis buffer (30 mM HEPES pH 7.5, 300 mM NaCl, 0.5 mM ATP, 5% glycerol, 20 mM imidazole, […]) supplemented with 1× Protease inhibitor cocktail and benzonase to the final concentration of 25 units/ml. Cells were homogenized by repeated pipetting. Cells were lysed by spinning for 45 min at 40,000 rpm in 45 Ti fixed-angle rotor (Beckman Coulter) at 4 °C. The supernatant was incubated with pre-equilibrated HisPUR NiNTA agarose resin (Thermo Fisher Scientific) for 1 h in a tightly closed gravity-flow column (Thermo Fisher Scientific) at 4 °C by slowly rotating. Subsequently, the resin was washed once lysis buffer and then with buffer B (30 mM HEPES pH 7.5, 300 mM NaCl, 0.5 mM ATP, 5% glycerol, 30 mM imidazole, […]). The protein was eluted from the resin after an overnight cleavage of the 6 × His-tag with 3C HRV protease in lysis buffer at 4 °C. The eluted protein was further purified via size exclusion chromatography on Superdex 200 10/300 GL column equilibrated in exclusion buffer (30 mM HEPES pH 7.5, 300 mM NaCl, 0.5 mM ATP, 5% glycerol, […]). Peak fractions were analyzed via SDS-PAGE, pooled and the protein was concentrated with Amicon Ultra-15 Centrifugal Filter tubes (Millipore). Purified proteins were aliquoted, snap-frozen in liquid N2, and stored at −80 °C.
Tubulin polymerization assays were performed in PEDTA (10 mM NaPi, 1 mM EDTA, 0.1 mM GTP pH 7.0) or GAB (10 mM NaPi, 3.4 M glycerol, 1 mM EGTA, 0.1 mM GTP pH 6.7) buffers supplemented with 0.9 mM GTP and 4 mM MgCl2.

[1] = tested on: Kb-3.1 cells (HeLa subclone); assay: MTT cytotoxicity assay, Kb-3.1; assay type: cell-based; details: Homo sapiens, read-out: Cytotoxicity IC50 Kb-3.1
Experimental: Antiproliferative assays were performed as described.

[2] = tested on: Dynein Light Chain LC8 (retrograde transport) in SH-SY5Y cells; assay: Cy5-DBP dynein binding probe tracking, live-cell imaging; assay type: cell-based, human; details: for Cy5-DBP Distance, normalized to control / Cy5-DBP Speed, normalized to control: 1 μM PTX or 2.5 μM FTX2, 1a or 1b, mean ± SEM
Excerpt: (§1) Building on our ability to chemically modulate MT structure, we next explored how these changes influence signaling patterns involved in MAPs interactions. Given that MTs are key players in intracellular transport – guiding organelles, vesicles and chromosomes via molecular motors like dyneins and kinesins – we assessed the impact of our compounds on transport dynamics in neuroblastoma SH-SY5Y cells. We combined live-cell imaging with previously developed tracking peptides (Figure A): Cy5-DBP, which encompasses the sequence that specifically recognizes Dynein Light Chain LC8 (retrograde transport), and Cy5-KBP, with a sequence that binds to the tetratricopeptide repeat of the kinesin-1 light chain KLC1 (anterograde transport). […] However, this was for a short incubation period (1 to 2.5 h, including imaging time) to avoid mitotic arrest or compromise cell viability. We then assessed particle behavior by measuring mean track displacement and mean track velocity.
(§2) Cy5-KBP and Cy5-DBP tracking peptides were synthesized at CIB-Margarita Salas (CSIC), following a published protocol. Briefly, the peptide chains were assembled via solid phase peptide synthesis (SPPS) using fluorenylmethyloxycarbonyl (Fmoc) as N-terminal protecting group and, subsequently labeled with the organic dye cyanine 5 (Cy5) via a maleimide–thiol reaction between the N-terminal cysteine residues of the peptides and the commercially available Cy5-maleimide. The final peptides were purified via reverse phase HPLC, dissolved in DMSO to a final 2.5 mM concentration and stored in small aliquots at −20 °C. SH-SY5Y cells were seeded into μ-Slide 8-wells ibiTreat plates (ibidi, flat polymer coverslip-bottom, tissue culture treated) at a concentration of 35,000 cells/well and incubated for 48 h at 37 °C and 5% CO2. […] After this time, the culture medium was replaced by the drug working solution containing either Cy5-KBP or Cy5-DBP, and the plate was incubated for an additional 15 min at 37 °C and 5% CO2. Then, the culture medium was replaced with drug working solution without labeled peptide and the cells were imaged using a confocal laser scanning microscope Leica TCS SP8 with a 63x oil immersion objective that included a humidified incubation chamber, a CO2 controller and a heating unit. Cy5 dye was excited at 635 nm and the fluorescence emission was collected at 645–690 nm. Images were recorded every 1.793 s for 3 min as 2-layer-z-stacks. For each condition, two to three different fields were imaged in two separate experiments.
(§3) Single-peptide trajectories were tracked with the TrackMate plugin from the Fiji package software (https://imagej.net/TrackMate). Particles with an estimated blob diameter of 1–1.5 μm were detected using the Laplacian of Gaussian (LoG) detector and linked with the Linear motion LAP tracker. Only spots that were at a maximum distance of 2 μm were linked. Trajectories with less than 6 spots were discarded since they were probably artifactual, and track mean displacement and track mean velocity were calculated and normalized to control cells. Data were further analyzed with MATLAB to perform a Mean Square Displacement (MSD) analysis to determine the mode of displacement of the peptides followed over time. Briefly, for each trajectory the MSD function was calculated and its log–log representation fitted with a linear function (log(MSD(τ)) = […] x log(τ) + C). MSD curves with an R^2 coefficient <0.8 were removed. The slope (α) of each MSD curve determines the motion type of each particle and particles were classified into: constrained particles (CM) α < 1, Brownian particles (BM) α = 1, and transported particles (TM) α > 1. Two independent experiments were performed using three biological replicates (N = 6). Statistical analyses of normalized track mean displacement and track mean velocity were performed using an unpaired t test with Welch’s correction in GraphPad Prism 8 software. […]

[3] = tested on: Kb-V1 cells (overexpressing PgP); assay: MTT cytotoxicity assay, Kb-V1; details: for IC50: Homo sapiens, KB-V1, 48 h, read-out: Cytotoxicity IC50 Kb-V1; for R/S (resistant to sensitive ratio): IC50 Kb-V1 / IC50 Kb-3.1
Experimental: (§4) Antiproliferative assays were performed as described. […] Then, increasing concentrations of drugs were added and incubated for 48 h prior to the reaction with the MTT solution. IC50 values were obtained by fitting the experimental data (absorbance at 570/690 nm) to a four-parameter logistic curve using SigmaPlot 14.5 software package (Systat Software, Inc., San Jose, CA, USA) and IC50 values were expressed as mean ± SEM from three independent experiments, each performed in duplicate.

[4] = tested on: HeLaβIII cells (overexpressing βIII tubulin isotype); assay: MTT cytotoxicity assay, HeLaβIII; details: for IC50: Homo sapiens, 48 h, read-out: Cytotoxicity IC50 HeLaβIII; for R/S (resistant to sensitive ratio): IC50 HeLaβIII / IC50 HeLa
Experimental: as §4

[5] = tested on: kinesin-1 light chain KLC1 (anterograde transport) in SH-SY5Y cells; assay: Cy5-KBP kinesin binding probe tracking, live-cell imaging; assay type: cell-based, human; details: for Cy5-KBP Distance, normalized to control / Cy5-KBP Speed, normalized to control: 1 μM PTX or 2.5 μM FTX2, 1a or 1b, mean ± SEM
Excerpt: as §1, §2, §3

SMILES	Polymerization v max (tubulin)	IC50 ([1]; KB 3-1, MTT, 48 h, mean ± SEM)	reduction of Cy5-DBP particle displacement vs nontreated control cells ([2]; 1 μM PTX)	IC50 [3]	IC50 [4]	Cy5-KBP Distance, normalized to control [5]	Cy5-KBP Speed, normalized to control [5]	effect on Cy5-KBP particle tracking ([5]; 2.5 μM)	IC50 ([1]; KB 3-1, 48 h)	Cy5-DBP Distance, normalized to control [2]	Cy5-DBP Speed, normalized to control [2]	R/S (resistant to sensitive ratio) [3]	R/S (resistant to sensitive ratio) [4]	reduction in kinesin binding probe velocity ([5]; 2.5 μM)
CC(=O)O[C@H]1C(=O)[C@@]2(C)[C@H]([C@H](OC(=O)c3ccccc3)[C@]3(O)C[C@H](OC(=O)[C@H](O)[C@@H](NC(=O)c4ccccc4)c4ccccc4)C(C)=C1C3(C)C)[C@]1(OC(C)=O)CO[C@@H]1C[C@@H]2O [PTX, Paclitaxel]	1.25 × 10^–2 min^–1	2.4 ± 0.2 nM	approximately 20%	2700 ± 600 nM	28.7 ± 0.7 nM	–	–	–	–	–	–	–	–	–
CC(=O)OC1C(=O)C2(C)C(OC(=O)CCCCC(=O)OC3CCc4ccccc43)CC3OCC3(OC(C)=O)C2C(OC(=O)c2ccccc2)C2(O)CC(OC(=O)C(O)C(NC(=O)c3ccccc3)c3ccccc3)C(C)=C1C2(C)C (stereo not drawn) [1a, 7-O-(6″-O-(2‴,3‴-Dihydroinden-1‴-yl)hexanedioyl) Paclitaxel]	1.19 × 10^–3 min^–1	–	–	> 40000 nM	510 ± 80 nM	0.92 ± 0.01 ratio to control	0.95 ± 0.01 ratio to control	did not affect particle tracking	280 ± 30 nM	0.92 ± 0.01	0.98 ± 0.02	>142	3	–
COc1ccc2c(c1)CC(NC(=O)CCCCCCCC(=O)OC1CC3OCC3(OC(C)=O)C3C(OC(=O)c4ccccc4)C4(O)CC(OC(=O)C(O)C(NC(=O)c5ccccc5)c5ccccc5)C(C)=C(C(OC(C)=O)C(=O)C13C)C4(C)C)CC2 [1b, 7-O-((S)-9″-(7‴-Methoxy-1‴,2‴,3‴,4‴-tetrahydronaphthalen-2‴-yl)amino) −9″-oxononanoyl) Paclitaxel]	1.44 × 10^–4 min^–1	150 ± 20 nM	–	19000 nM	720 ± 80 nM	0.85 ± 0.01 ratio to control	0.87 ± 0.01 ratio to control	–	–	0.92 ± 0.01	1.07 ± 0.01	127	7	~16%
CC(=O)O[C@H]1C(=O)[C@]2(C)[C@@H](OC(=O)[C@H](C)NC(=O)c3ccc(-c4c5cc(F)c(=O)cc-5oc5cc(O)c(F)cc45)c(C(=O)O)c3)C[C@H]3OC[C@@]3(OC(C)=O)[C@H]2[C@H](OC(=O)c2ccccc2)[C@]2(O)C[C@H](OC(=O)[C@H](O)[C@@H](NC(=O)c3ccccc3)c3ccccc3)C(C)=C1C2(C)C [FTX2, Flutax2]	1.42 × 10^–3 min^–1	–	–	–	–	0.910 ± 0.003 ratio to control	0.85 ± 0.01 ratio to control	–	–	1.06 ± 0.02	1.21 ± 0.02	–	–	~14%
